Consider 3 compounds from patent US20020045254A1, “Established cells” (priority 1998, published 2002).

In one series the target is T1, GLUT-1 transport carrier (Rattus norvegicus, UniProt P11167).
T1 construct: endogenous in cells; host or cells: TR-BBB1, TR-BBB5, TR-BBB6, TR-BBB11, TR-BBB13, immortalized rat brain capillary endothelial cells
T1 sequence (P11167 1-492): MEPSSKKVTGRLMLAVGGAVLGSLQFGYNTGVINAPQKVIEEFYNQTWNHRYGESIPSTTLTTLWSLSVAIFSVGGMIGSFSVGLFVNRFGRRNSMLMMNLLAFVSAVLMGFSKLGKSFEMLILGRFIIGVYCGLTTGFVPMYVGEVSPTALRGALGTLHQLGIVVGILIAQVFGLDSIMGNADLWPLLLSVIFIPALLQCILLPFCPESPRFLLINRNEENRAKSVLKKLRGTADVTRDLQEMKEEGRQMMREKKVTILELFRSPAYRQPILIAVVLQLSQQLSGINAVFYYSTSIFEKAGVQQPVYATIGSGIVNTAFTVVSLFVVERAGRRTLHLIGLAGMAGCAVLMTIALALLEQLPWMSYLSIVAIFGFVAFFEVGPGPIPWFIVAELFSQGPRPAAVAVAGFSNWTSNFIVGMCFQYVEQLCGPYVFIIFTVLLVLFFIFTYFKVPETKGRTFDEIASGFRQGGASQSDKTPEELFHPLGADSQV
The series is described as follows: 3-OMG uptake by TR-BBB cell lines (glucose transport capability). In kind it is in vitro ADME.

The next series concerns the target T2, GLUT-1 transporter (Rattus norvegicus, UniProt P11167).
T2 construct: endogenous in cells; host or cells: TR-iBRB2, immortalized rat retinal capillary endothelial cells (tsA58 SV40 large T transgenic rat)
T2 sequence (P11167 1-492): T1 sequence (P11167 1-492)
The series is described as follows: 3-OMG uptake by TR-iBRB2 cells (glucose transport capability). In kind it is in vitro ADME. Here is the method:
The 3-OMG uptake was determined according to the following procedure. After removing medium by aspiration, 0.2 mL of an uptake buffer containing 232 kBq/mL of [^3H]3-OMG heated to 37° C. was added. […] After 10 seconds, the uptake buffer (1) was removed and the residue was washed with the uptake buffer (1) at 4° C. The same procedure was repeated except for changing the period of time before removing the uptake buffer (1) to 20 seconds, 30 seconds, or one minutes. The cells were solubilized in 1 mL of PBS containing 1% Triton X-100 and the radioactivity was measured using a liquid scintillation counter to confirm the linearity of the 3-OMG uptake capability. As a result, an uptake time of 20 seconds was set.
Next, the substrate concentration dependency of the 3-OMG uptake capability was examined. After washing the cells with the uptake buffer (1) heated to 37° C., 0.2 mL of the uptake buffer (1) containing 462 kBq/well of [^3H]3-OMG was added. Solutions containing 3-OMG at different concentrations were prepared by adding non-labeled 3-OMG to the uptake buffer (1) to make final concentrations of 0, 0.5, 1, 5, 10, 20, 30, and 50 mM. […] Next, the cells were solubilized overnight in 1 mL of PBS containing 1% Triton X-100 and the radioactivity was measured using a liquid scintillation counter.

Series [1] has as its system TR-CSFB3 cells.
Protocol: The concentration dependency of the resulting cells on the L-proline transport was examined to determine the L-proline transport capability.
After the uptake reaction for 30 minutes and washing three times with PBS, 1 mL of PBS containing 1% Triton X-100 was added and the mixture was allowed to stand overnight to solubilize the cells. The radioactivity was measured using a liquid scintillation counter (LS-6500 made by Beckmann Co.).
The subject of the next series is rabbit choroid plexus. Conditions: read-out: Km value from rabbit choroid plexus; L-proline, Coben L. A. et al. (1972); cited from earlier work.
Series [2] concerns TR-CSFB3 cells. The series is described as follows: Inhibition of L-proline uptake of TR-CSFB3 cells by Na+-free (choline) buffer and ouabain. In kind it is cell-based, rat. Conditions: 30 minutes. Here is the method: The L-proline uptake into the isolated choroid plexus is dependent on Na^+. […] However, because the experiment must be carried out under Na^+-free conditions, all Na^+ in the uptake buffer (1) was replaced with coline. […] Both reactions were carried out for 30 minutes. It was confirmed that L-proline uptake was inhibited as much as 98% under Na^+-free conditions. It was confirmed that 56% of L-proline uptake was inhibited by 1 mM ouabain. As a result, the L-proline uptake of TR-CSFB3 cells was confirmed to be Na^+-dependent.

A word on the Km: it is the concentration of substrate that gives half-maximal velocity. Regarding 3-o-methyl-D-glucose [3-OMG], the Initial uptake rate at GLUT-1 transport carrier (TR-BBB1 cells) is given as 8.12 ± 0.62 μ1/min/mg protein; on GLUT-1 transport carrier (TR-BBB5 cells), 10.1 ± 1.32 μ1/min/mg protein; on GLUT-1 transport carrier (TR-BBB6 cells), 7.07 ± 0.92 μ1/min/mg protein; at GLUT-1 transport carrier (TR-BBB11 cells) it was 10.2 ± 0.62 μ1/min/mg protein; at GLUT-1 transport carrier (TR-BBB13 cells), 8.96 ± 0.50 μ1/min/mg protein. On GLUT-1 transport carrier (span over TR-BBB1, TR-BBB5, TR-BBB6, TR-BBB11 and TR-BBB13 cells), the “initial uptake rate of [3H]3-OMG” value is on record as 7.07-10.2 μl/min/mg protein. In addition, at GLUT-1 transporter (20 seconds uptake, 37° C., 0-50 mM 3-OMG), the “maximum velocity constant (Vmax) of 3-OMG uptake” value came to 45 nmol/min/mg protein. Moreover, the Km at GLUT-1 transporter (read-out: Michaelis constant (Km) of 3-OMG uptake, 20 seconds uptake, 37° C., 0-50 mM 3-OMG) is 5600 µM.
On to `O=C(O)[C@@H]1CCCN1` [L-proline], for which the “Vmax of L-proline uptake” value with TR-CSFB3 cells [1] (30 minutes uptake, 0.005-20 mM L-proline) stood at 2.4 nmol/min/mg protein. Besides, the Km in the series on TR-CSFB3 cells [1] (read-out: Km of L-proline uptake, 30 minutes uptake, 0.005-20 mM L-proline) is 1500 µM; with rabbit choroid plexus it was 1100 µM. Besides, in the series on TR-CSFB3 cells [2] (all Na+ in uptake buffer replaced with choline), the “inhibition of L-proline uptake under Na+-free conditions” value is 98%.
As usually defined, the inhibition is the change of the read-out against control, counted positive when it falls. A low value points to a weak effect. Compound `C[C@@H]1O[C@@H](O[C@H]2C[C@@H](O)[C@]3(CO)[C@H]4[C@H](O)C[C@]5(C)[C@@H](C6=CC(=O)OC6)CC[C@]5(O)[C@@H]4CC[C@]3(O)C2)[C@H](O)[C@H](O)[C@H]1O` [ouabain] had an inhibition at 1000 µM in the series on TR-CSFB3 cells [2] (Rattus norvegicus, 0.5 h, 1 mM ouabain) of 56%.
